Measurements as given in ChEMBL document CHEMBL1156696, “Structure activity relationships of quinoline-containing c-Met inhibitors” (Eur J Med Chem, 2008).

What was measured:
[1] = target: T1, Hepatocyte growth factor receptor (Homo sapiens, UniProt P08581); experiment: Inhibition of human activated c-Met at 1 uM by PK/LDH coupled kinetic assay
[2] = target: T1, Hepatocyte growth factor receptor; experiment: Inhibition of human activated c-Met by PK/LDH coupled kinetic assay

T1 sequence (P08581 whole entry): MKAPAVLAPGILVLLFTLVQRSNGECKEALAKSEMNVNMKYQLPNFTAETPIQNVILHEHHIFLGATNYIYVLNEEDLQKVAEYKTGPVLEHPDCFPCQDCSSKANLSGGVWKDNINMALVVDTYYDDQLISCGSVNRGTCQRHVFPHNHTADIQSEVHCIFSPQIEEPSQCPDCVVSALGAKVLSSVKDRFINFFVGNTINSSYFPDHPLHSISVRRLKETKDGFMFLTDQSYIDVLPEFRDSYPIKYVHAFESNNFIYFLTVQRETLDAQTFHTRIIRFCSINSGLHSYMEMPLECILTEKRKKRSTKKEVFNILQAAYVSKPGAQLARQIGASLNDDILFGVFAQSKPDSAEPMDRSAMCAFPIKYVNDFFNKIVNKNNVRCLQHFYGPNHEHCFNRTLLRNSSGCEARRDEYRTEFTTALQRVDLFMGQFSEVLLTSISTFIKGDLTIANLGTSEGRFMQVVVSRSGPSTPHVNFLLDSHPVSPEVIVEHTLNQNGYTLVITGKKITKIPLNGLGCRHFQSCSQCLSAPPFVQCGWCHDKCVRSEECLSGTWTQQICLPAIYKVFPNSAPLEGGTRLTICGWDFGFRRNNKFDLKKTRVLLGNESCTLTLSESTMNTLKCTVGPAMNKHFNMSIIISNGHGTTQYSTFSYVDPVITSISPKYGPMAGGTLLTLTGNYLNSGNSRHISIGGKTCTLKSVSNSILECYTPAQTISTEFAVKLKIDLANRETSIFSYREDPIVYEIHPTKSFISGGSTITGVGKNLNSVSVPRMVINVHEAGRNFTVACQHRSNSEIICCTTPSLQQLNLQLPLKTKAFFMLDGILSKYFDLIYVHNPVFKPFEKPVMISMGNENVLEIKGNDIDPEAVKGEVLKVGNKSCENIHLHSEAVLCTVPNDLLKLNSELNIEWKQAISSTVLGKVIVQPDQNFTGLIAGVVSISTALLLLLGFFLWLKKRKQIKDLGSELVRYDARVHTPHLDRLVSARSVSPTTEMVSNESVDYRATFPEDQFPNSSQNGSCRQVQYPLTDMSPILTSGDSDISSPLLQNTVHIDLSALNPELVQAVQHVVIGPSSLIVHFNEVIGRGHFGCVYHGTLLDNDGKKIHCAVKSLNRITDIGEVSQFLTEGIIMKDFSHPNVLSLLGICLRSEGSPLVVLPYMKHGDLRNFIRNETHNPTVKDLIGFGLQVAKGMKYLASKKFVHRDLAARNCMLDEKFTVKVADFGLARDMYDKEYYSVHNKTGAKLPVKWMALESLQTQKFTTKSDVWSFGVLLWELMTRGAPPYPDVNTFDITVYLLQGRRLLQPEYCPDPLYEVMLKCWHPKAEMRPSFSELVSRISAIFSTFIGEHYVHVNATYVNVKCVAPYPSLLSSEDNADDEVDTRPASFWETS

inhibition [1] [%]	Ki [2] [µM]	SMILES
2		COc1cc2nccc(Oc3ccc(N)nc3)c2cc1OC
	> 30	COc1cc2nccc(Oc3ccc(NC(=O)N4CCNCC4)nc3)c2cc1OC
